Reference: the supplement of paper PMC12325586

Test system: MIA PaCa-2
Description: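 MIA PaCa-2 Tet-on shOFD1 pancreatic cancer cells (2000 cells/well, 96-well) were treated with Selleck FDA-approved library compounds at 0, 1, 5, 10, 25 and 50 µM, with extra concentrations added where needed, for 72 h at 37 °C. Knockdown wells also received 100 ng/mL doxycycline; control wells received DMSO without doxycycline. Viability was read by CCK-8 absorbance at 450 nm and normalised to DMSO control wells. IC50 was fitted in GraphPad Prism as a 4-parameter logistic with bottom fixed at 0 and top fixed at 1; at least 3 technical replicate wells per condition.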

[1] = OFD1 knockdown: no (no doxycycline)
[2] = OFD1 knockdown: yes (Tet-on shOFD1, 100 ng/mL doxycycline)

SMILES | IC50 cell viability [1] [µM] | IC50 cell viability [2] [µM]
CC1(C)O[C@@H]2C[C@H]3[C@@H]4CCC5=CC(=O)C=C[C@]5(C)[C@@]4(F)[C@@H](O)C[C@]3(C)[C@]2(C(=O)CO)O1 [S1628] | 23 | 22.1
Oc1ncnc2[nH]ncc12 [S1630] | 13.5 | 13.3
CC1=C(/C=C/C(C)=C/C=C/C(C)=C/C(=O)O)C(C)(C)CCC1 [S1653] | 13.6 | 14.3
O=C1[C@H](CC[C@H](O)c2ccc(F)cc2)[C@@H](c2ccc(O)cc2)N1c1ccc(F)cc1 [S1655] | 3.33 | 3.62
C[C@]12CC[C@@H]3c4ccc(O)cc4CC[C@H]3[C@@H]1CCC2=O [S1665] | 38.1 | 37.8
CCC1(c2ccc(N)cc2)CCC(=O)NC1=O (stereo not drawn) [S1672] | 23.6 | 22.2
CCN(CC)C(=S)SSC(=S)N(CC)CC [S1680] | 46.3 | 49.8
C[C@H]1C[C@H]2[C@@H]3CCC4=CC(=O)C=C[C@]4(C)[C@H]3C(=O)C[C@]2(C)[C@@]1(O)C(=O)CO [S1689] | 17.6 | 16.8
CS(=O)(=O)OCCCCOS(C)(=O)=O [S1692] | 11.6 | 12.1
C[C@]12CCC(=O)C=C1CC[C@@H]1[C@@H]2[C@@H](O)C[C@@]2(C)[C@H]1CC[C@]2(O)C(=O)CO [S1696] | 57.9 | 53.4
C[C@]12CC[C@@H]3c4ccc(O)cc4CC[C@H]3[C@@H]1CC[C@@H]2O [S1709] | 18 | 18.8
Nc1ccn([C@@H]2O[C@H](CO)[C@@H](O)C2(F)F)c(=O)n1 [S1714] | 3.36 | 3.16
Cn1cnc([N+](=O)[O-])c1Sc1ncnc2[nH]cnc12 [S1721] | 28.1 | 29.2
O=S(=O)(O)CCS [S1735] | 19.2 | 18.3
CN(C)CCOc1ccc(/C(=C(/CCCl)c2ccccc2)c2ccccc2)cc1 [S1776] | 47.6 | 46.9
Nc1ncn([C@@H]2O[C@H](CO)[C@@H](O)[C@H]2O)c(=O)n1 [S1782] | 12.6 | 10.7
COc1cc([C@@H]2c3cc4c(cc3[C@@H](O[C@@H]3O[C@@H]5CO[C@@H](c6cccs6)O[C@H]5[C@H](O)[C@H]3O)[C@H]3COC(=O)[C@H]23)OCO4)cc(OC)c1O [S1787] | 0.62 | 0.59
CCC(C)(C)C(=O)O[C@H]1C[C@@H](C)C=C2C=C[C@H](C)[C@H](CC[C@@H]3C[C@@H](O)CC(=O)O3)[C@H]21 [S1792] | 26.2 | 25
O=NN(CCCl)C(=O)NC1CCCCC1 [S1840] | 18.8 | 16.9
NC(=O)NO [S1896] | 4.41 | 4.33
CC(C)C(=O)Nc1ccc([N+](=O)[O-])c(C(F)(F)F)c1 [S1908] | 2.71 | 2.5

SMILES | IC50 cell viability [1] [µM] | IC50 cell viability [2] [µM]
CC/C(=C(\c1ccccc1)c1ccc(OCCN(C)C)cc1)c1ccccc1 [S1972] | 42 | 36.7
Cc1nnc(C(C)C)n1[C@H]1C[C@H]2CC[C@@H](C1)N2CC[C@H](NC(=O)C1CCC(F)(F)CC1)c1ccccc1 [S2003] | 11 | 10.3
O=P1(N(CCCl)CCCl)NCCCO1 (stereo not drawn) [S2057] | 20.3 | 18.6
CS(=O)(=O)CCNCc1ccc(-c2ccc3ncnc(Nc4ccc(OCc5cccc(F)c5)c(Cl)c4)c3c2)o1 [S2111] | 9.12 | 8.03
O=C(Nc1c(Cl)cncc1Cl)c1ccc(OC(F)F)c(OCC2CC2)c1 [S2131] | 22 | 20
CC(C)C[C@H](NC(=O)CNC(=O)c1cc(Cl)ccc1Cl)B(O)O [S2180] | 45.1 | 39.6
COCCCOc1cc(C[C@@H](C[C@H](N)[C@@H](O)C[C@H](C(=O)NCC(C)(C)C(N)=O)C(C)C)C(C)C)ccc1OC [S2199] | 4.3 | 3.52
C[C@]12CCC(=O)C(O)=C1CC[C@@H]1[C@@H]2CC[C@]2(C)C(=O)CC[C@@H]12 [S2208] | 11 | 10.4
FC(F)(F)c1ccc(/C=C/c2nc(COc3ccc(CCCCn4ccnn4)cc3)co2)cc1 [S2216] | 41.1 | 37.6
CCc1c2c(nc3ccc(OC(=O)N4CCC(N5CCCCC5)CC4)cc13)-c1cc3c(c(=O)n1C2)COC(=O)[C@]3(O)CC [S2217] | 43.2 | 47.2
CC[C@@H]1C(=O)N(C)c2cnc(Nc3ccc(C(=O)N[C@H]4CC[C@H](N5CCN(CC6CC6)CC5)CC4)cc3OC)nc2N1C(C)C [S2235] | 13.3 | 12.1
O=C1c2c(O)ccc(O)c2C(=O)c2c(NCCNCCO)ccc(NCCNCCO)c21 [S2485] | 3.55 | 3.77
COc1c(C)c2c(c(O)c1C/C=C(\C)CCC(=O)O)C(=O)OC2 [S2487] | 10.9 | 9.95
CC(C)(C)NCC(O)c1ccc(O)c(CO)c1 (stereo not drawn) [S2507] | 4.57 | 4.1
Cc1cccc(C)c1NC1=NCCCS1 [S2516] | 15.3 | 14.1
CC(=O)O[C@]1(C(C)=O)CC[C@H]2[C@@H]3C[C@H](C)C4=CC(=O)CC[C@]4(C)[C@H]3CC[C@@]21C [S2567] | 10.2 | 8.9
CC#C[C@]1(O)CC[C@H]2[C@@H]3CCC4=CC(=O)CCC4=C3[C@@H](c3ccc(N(C)C)cc3)C[C@@]21C [S2606] | 9.08 | 8.71
COc1ncc(-c2ccc3nccc(-c4ccnnc4)c3c2)cc1NS(=O)(=O)c1ccc(F)cc1F [S2658] | 8.98 | 8.74
CC(=O)Nc1cccc(-n2c(=O)n(C3CC3)c(=O)c3c(Nc4ccc(I)cc4F)n(C)c(=O)c(C)c32)c1 [S2673] | 23.9 | 21.9
Cc1ccc([C@@H]2O[C@H](CO)[C@@H](O)[C@H](O)[C@H]2O)cc1Cc1ccc(-c2ccc(F)cc2)s1 [S2760] | 21.9 | 21.6
C[C@@H]1CCN(C(=O)CC#N)C[C@@H]1N(C)c1ncnc2[nH]ccc12 [S2789] | 2.19 | 2.38

The next lines start with the values.

IC50 cell viability [1] [µM] | IC50 cell viability [2] [µM] | SMILES
26.3 | 28.8 | COc1ccc(-c2nc3cc(C4=NNC(=O)CC4C)ccc3[nH]2)cc1 (stereo not drawn) [S1550]
15.7 | 15.5 | Nc1cccc2c1C(=O)N(C1CCC(=O)NC1=O)C2=O (stereo not drawn) [S1567]
77.2 | 83.8 | Cc1ccc(-n2nc(C(C)(C)C)cc2NC(=O)Nc2ccc(OCCN3CCOCC3)c3ccccc23)cc1 [S1574]
1.56 | 1.3 | CCOc1nc2cccc(C(=O)O)c2n1Cc1ccc(-c2ccccc2-c2nnn[nH]2)cc1 [S1578]
20.2 | 19.2 | COc1ccccc1OCC(O)CN1CCN(CC(=O)Nc2c(C)cccc2C)CC1 (stereo not drawn) [S1799]
8.13 | 7.35 | CC(C)n1c(/C=C/C(O)CC(O)CC(=O)O)c(-c2ccc(F)cc2)c2ccccc21 (stereo not drawn) [S1909]
19.7 | 21.3 | C=C(c1ccc(C(=O)O)cc1)c1cc2c(cc1C)C(C)(C)CCC2(C)C [S2098]
3.41 | 3.2 | Cc1c(C(=O)Nc2ccc(N3C[C@@H](C)O[C@@H](C)C3)nc2)cccc1-c1ccc(OC(F)(F)F)cc1 [S2151]
22.7 | 24.4 | CC[C@H](Nc1ncnc2[nH]cnc12)c1nc2cccc(F)c2c(=O)n1-c1ccccc1 [S2226]
3.61 | 3.02 | Cc1cccc(-c2nn3c(c2-c2ccnc4ccc(C(N)=O)cc24)CCC3)n1 [S2230]
4.02 | 3.69 | O=C(O)c1ccc2c(c1)nc(Nc1cccc(Cl)c1)c1ccncc12 [S2248]
18.9 | 18 | CN1CCN(C2=Nc3cc(Cl)ccc3Nc3ccccc32)CC1 [S2459]
6.98 | 6.56 | Cc1ccc(NC(=O)c2ccc(CN3CCN(C)CC3)cc2)cc1Nc1nccc(-c2cccnc2)n1 [S2475]
22.1 | 23 | CCC(C)n1ncn(-c2ccc(N3CCN(c4ccc(OCC5COC(Cn6cncn6)(c6ccc(Cl)cc6Cl)O5)cc4)CC3)cc2)c1=O (stereo not drawn) [S2476]
10.2 | 9.8 | Cc1ccc(O)c([C@H](CCN(C(C)C)C(C)C)c2ccccc2)c1 [S2550]
8.62 | 7.63 | CN(CCOc1ccc(CC2SC(=O)NC2=O)cc1)c1ccccn1 (stereo not drawn) [S2556]
2.72 | 3.16 | CCc1ccc(CCOc2ccc(CC3SC(=O)NC3=O)cc2)nc1 (stereo not drawn) [S2590]
3.68 | 3.47 | Cc1ccccc1C(=O)Nc1ccc(C(=O)N2CCCC(O)c3cc(Cl)ccc32)c(C)c1 (stereo not drawn) [S2593]
53.1 | 52.4 | C=CC(=O)N1CCC[C@@H](n2nc(-c3ccc(Oc4ccccc4)cc3)c3c(N)ncnc32)C1 [S2680]
30.1 | 29.6 | COc1cc2ncnc(Nc3ccc(F)c(Cl)c3)c2cc1NC(=O)/C=C/CN1CCCCC1 [S2727]
13.2 | 12.9 | CC1(COc2ccc3c(c2)ncn3-c2ccc3cccc(N4CCC(N)CC4)c3n2)COC1 [S2730]
14.5 | 13.5 | Cc1cnc(Nc2ccc(OCCN3CCCC3)cc2)nc1Nc1cccc(S(=O)(=O)NC(C)(C)C)c1 [S2736]
